Measured values: PMC6271239, “Synthesis and in Vitro Evaluation of New Nitro-Substituted Thiazolyl Hydrazone Derivatives as Anticandidal and Anticancer Agents” (Molecules, 2014)
Converted amounts (≈) assume the structure as drawn.

Columns and labels:
[1] = system: MCF-7 human breast adenocarcinoma cell line; experiment: MTT cytotoxicity assay; format: cell-based; conditions: 3.9–500 µg/mL; for IC50: Homo sapiens, MCF7, 24 h incubation
Experimental: (§1) The tetrazolium salt, MTT (3-(4,5-dimethylthiazol-2-yl)-2,5-diphenyltetrazolium bromide), is used to measure the metabolic activity of viable cells. Tetrazolium salts are reduced to formazan by mitochondrial succinate dehydrogenase, an enzyme which is only active in cells with an intact metabolism. The formazan can be quantified photometrically and it is in correlation with the number of viable cells. Cytotoxicity was tested using the MCF-7 human breast adenocarcinoma cell line and NIH/3T3 mouse embryonic fibroblast cell line. NIH/3T3 and MCF-7 cells were incubated in RPMI medium (Hyclone, Thermo Scientific, Logan, UT, USA) supplemented with fetal calf serum (Hyclone), 100 IU/mL penicillin and […] (Hyclone) at 37 °C in a humidified atmosphere of 95% air and 5% CO2. MCF-7 and NIH/3T3 cells were seeded at 10,000 cells into each well of 96-well plates. After 24 h of incubating period, the culture mediums were removed and compounds were added to culture medium at 3.9–500 µg/mL concentrations. After 24 h of incubation, cytotoxicity tests were performed using the MTT assay, which measures mitochondrial activity, in MCF-7 and NIH/3T3 cells. Firstly, 20 µL MTT solution (5 mg/mL MTT powder in PBS) was added to each well. After 3 h incubation period at 37 °C, 5% CO2, the contents of the wells were removed and 100 µL DMSO was added to each well. Then, OD of the plate was read at 570 nm. Inhibition% was calculated for each concentration of the compounds. IC50 values were estimated by non-linear regression analysis. Cisplatin was used as a positive control. Stock solutions of compounds were prepared in DMSO and further dilutions were made with fresh culture medium. All experiments were performed in duplicate.

[2] = system: NIH/3T3 mouse embryonic fibroblast cell line; experiment: MTT cytotoxicity assay; format: cell-based; conditions: 3.9–500 µg/mL; for IC50: Mus musculus, NIH3T3, 24 h incubation
Experimental: as §1

[3] = system: Candida tropicalis (NRRLY 12968); experiment: Anticandidal broth microdilution assay; format: cell-based; conditions: RPMI, 37 °C, 24 h
Experimental: (§2) Anticandidal activity assay was performed against Candida albicans (ATCC 10231), Candida utilis (NRRLY 900), Candida tropicalis (NRRLY 12968), Candida krusei (NRRLY 7179), Candida parapsilosis (NRRLY 12696) and Candida glabrata (ATCC 2001) standard strains according to the CSLI method.
(§3) The minimum inhibitory concentration (MIC, µg/mL) values against pathogenic Candida strains were determined by a broth microdilution method using a 96-well plate format. Compounds 1–14 and fluconazole as a standard control were first dissolved in dimethyl sulfoxide (DMSO) (25%) at an initial concentration of 2000 µg/mL.
(§4) All Candida strains were inoculated on Potato Dextrose Agar (PDA) prior the experiments at 37 °C. After the incubation, sufficiently grown microorganisms were inoculated in sterile saline (0.85%), and then standardized according to the turbidity to 5 × 10^3 CFU (McFarland No: 0.5) per well in RPMI medium under sterile conditions. Serial dilutions were prepared in 100 µL RPMI medium with an equal amount of the test samples, and 100 µL each microorganism suspension was pipetted into each well and incubated at 37 °C for 24 h. Positive growth controls (to assess the presence of turbidity) were performed in wells without the test samples, whereas the negative growth control (medium) was also evaluated. MIC was deﬁned as the lowest concentration without any visible growth of the yeast when compared with the growth in the control plate. All experiments were performed in duplicate.

[4] = system: Candida parapsilosis (NRRLY 12696); experiment: Anticandidal broth microdilution assay; format: cell-based; conditions: Lodderomyces parapsilosis, RPMI, 37 °C, 24 h
Experimental: as §2, §3, §4

[5] = system: Candida utilis (NRRLY 900); experiment: Anticandidal broth microdilution assay; format: cell-based; conditions: Williopsis jadinii, RPMI, 37 °C, 24 h
Experimental: as §2, §3, §4

[6] = system: Candida albicans (ATCC 10231); experiment: Anticandidal broth microdilution assay; format: cell-based; conditions: ATCC10231, RPMI, 37 °C, 24 h
Experimental: as §2, §3, §4

[7] = system: Candida krusei (NRRLY 7179); experiment: Anticandidal broth microdilution assay; format: cell-based; conditions: Pichia kudriavzevii, RPMI, 37 °C, 24 h
Experimental: as §2, §3, §4

[8] = system: Candida glabrata (ATCC 2001); experiment: Anticandidal broth microdilution assay; format: cell-based; conditions: Nakaseomyces glabratus, ATCC2001, RPMI, 37 °C, 24 h
Experimental: as §2, §3, §4

## N.N.[Cl][Pt][Cl] [Cisplatin, reference compound]
[1]; 24 h incubation
  IC50 MCF-7 Cell Line: 31.2 µg/mL
[2]; 24 h incubation
  IC50 NIH/3T3 Cell Line: 330.58 µg/mL

## O=[N+]([O-])c1ccc(-c2ccc(C=NNc3nc(-c4ccccc4)cs3)o2)cc1 [Compound 1, 2-[2-((5-(4-Nitrophenyl)furan-2-yl)methylene)hydrazinyl]-4-phenylthiazole]
other
  melting point: 213 to 214 °C
[3]
  MIC: 1000 µg/mL (≈ 2560 µM)
[4]
  MIC: 500 µg/mL (≈ 1280 µM)
[5]
  MIC: 500 µg/mL (≈ 1280 µM)
[6]
  MIC: 500 µg/mL (≈ 1280 µM)
[7]
  MIC: 500 µg/mL (≈ 1280 µM)
[8]
  MIC: 1000 µg/mL (≈ 2560 µM)
[1]
  IC50: > 500 µg/mL
[2]
  IC50: > 500 µg/mL

## O=[N+]([O-])c1ccc(-c2csc(NN=Cc3ccc(-c4ccc([N+](=O)[O-])cc4)o3)n2)cc1 [Compound 2, 4-(4-Nitrophenyl)-2-[2-((5-(4-nitrophenyl)furan-2-yl)methylene)hydrazinyl]thiazole]
other
  melting point: 252 to 254 °C
[3]
  MIC: 500 µg/mL (≈ 1150 µM)
[4]
  MIC: 500 µg/mL (≈ 1150 µM)
[5]
  MIC: 500 µg/mL (≈ 1150 µM)
[6]
  MIC: 500 µg/mL (≈ 1150 µM)
[7]
  MIC: 500 µg/mL (≈ 1150 µM)
[8]
  MIC: 1000 µg/mL (≈ 2300 µM)
[1]
  IC50: > 500 µg/mL
[2]
  IC50: > 500 µg/mL

## O=[N+]([O-])c1ccc(-c2ccc(C=NNc3nc(-c4ccc(F)cc4)cs3)o2)cc1 [Compound 3, 4-(4-Fluorophenyl)-2-[2-((5-(4-nitrophenyl)furan-2-yl)methylene)hydrazinyl]thiazole]
other
  melting point: 241 to 242 °C
[3]
  MIC: 500 µg/mL (≈ 1220 µM)
[4]
  MIC: 500 µg/mL (≈ 1220 µM)
[5]
  MIC: 500 µg/mL (≈ 1220 µM)
[6]
  MIC: 500 µg/mL (≈ 1220 µM)
[7]
  MIC: 500 µg/mL (≈ 1220 µM)
[8]
  MIC: 1000 µg/mL (≈ 2450 µM)
[1]
  IC50: 500 µg/mL (≈ 1220 µM)
[2]
  IC50: 250 µg/mL (≈ 612 µM)

## O=[N+]([O-])c1ccc(-c2ccc(C=NNc3nc(-c4ccc(Cl)cc4)cs3)o2)cc1 [Compound 4, 4-(4-Chlorophenyl)-2-[2-((5-(4-nitrophenyl)furan-2-yl)methylene)hydrazinyl]thiazole]
other
  melting point: 229 to 231 °C
[3]
  MIC: 500 µg/mL (≈ 1180 µM)
[4]
  MIC: 1000 µg/mL (≈ 2350 µM)
[5]
  MIC: 500 µg/mL (≈ 1180 µM)
[6]
  MIC: 500 µg/mL (≈ 1180 µM)
[7]
  MIC: 500 µg/mL (≈ 1180 µM)
[8]
  MIC: 500 µg/mL (≈ 1180 µM)
[1]
  IC50: > 500 µg/mL
[2]
  IC50: > 500 µg/mL

## O=[N+]([O-])c1ccc(-c2ccc(C=NNc3nc(-c4ccc(Br)cc4)cs3)o2)cc1 [Compound 5, 4-(4-Bromophenyl)-2-[2-((5-(4-nitrophenyl)furan-2-yl)methylene)hydrazinyl]thiazole]
other
  melting point: 243 to 244 °C
[3]
  MIC: 500 µg/mL (≈ 1070 µM)
[4]
  MIC: 500 µg/mL (≈ 1070 µM)
[5]
  MIC: 500 µg/mL (≈ 1070 µM)
[6]
  MIC: 500 µg/mL (≈ 1070 µM)
[7]
  MIC: 1000 µg/mL (≈ 2130 µM)
[8]
  MIC: 1000 µg/mL (≈ 2130 µM)
[1]
  IC50: > 500 µg/mL
[2]
  IC50: > 500 µg/mL

## Cc1ccc(-c2csc(NN=Cc3ccc(-c4ccc([N+](=O)[O-])cc4)o3)n2)cc1 [Compound 6, 2-[2-((5-(4-Nitrophenyl)furan-2-yl)methylene)hydrazinyl]-4-(p-tolyl)thiazole]
other
  melting point: 236 to 237 °C
[3]
  MIC: 1000 µg/mL (≈ 2470 µM)
[4]
  MIC: 500 µg/mL (≈ 1240 µM)
[5]
  MIC: 500 µg/mL (≈ 1240 µM)
[6]
  MIC: 500 µg/mL (≈ 1240 µM)
[7]
  MIC: 1000 µg/mL (≈ 2470 µM)
[8]
  MIC: 500 µg/mL (≈ 1240 µM)
[1]
  IC50: > 500 µg/mL
[2]
  IC50: > 500 µg/mL

## COc1ccc(-c2csc(NN=Cc3ccc(-c4ccc([N+](=O)[O-])cc4)o3)n2)cc1 [Compound 7, 4-(4-Methoxyphenyl)-2-[2-((5-(4-nitrophenyl)furan-2-yl)methylene)hydrazinyl]thiazole]
other
  melting point: 232 to 233 °C
[3]
  MIC: 500 µg/mL (≈ 1190 µM)
[4]
  MIC: 500 µg/mL (≈ 1190 µM)
[5]
  MIC: 500 µg/mL (≈ 1190 µM)
[6]
  MIC: 500 µg/mL (≈ 1190 µM)
[7]
  MIC: 500 µg/mL (≈ 1190 µM)
[8]
  MIC: 1000 µg/mL (≈ 2380 µM)
[1]
  IC50: > 500 µg/mL
[2]
  IC50: > 500 µg/mL

## O=[N+]([O-])c1cc(Cl)ccc1-c1ccc(C=NNc2nc(-c3ccccc3)cs2)o1 [Compound 8, 2-[2-((5-(4-Chloro-2-nitrophenyl)furan-2-yl)methylene)hydrazinyl]-4-phenylthiazole]
other
  melting point: 194 to 195 °C
[3]
  MIC: 500 µg/mL (≈ 1180 µM)
[4]
  MIC: 1000 µg/mL (≈ 2350 µM)
[5]
  MIC: 500 µg/mL (≈ 1180 µM)
[6]
  MIC: 500 µg/mL (≈ 1180 µM)
[7]
  MIC: 500 µg/mL (≈ 1180 µM)
[8]
  MIC: 1000 µg/mL (≈ 2350 µM)
[1]
  IC50: > 500 µg/mL
[2]
  IC50: > 500 µg/mL

## O=[N+]([O-])c1ccc(-c2csc(NN=Cc3ccc(-c4ccc(Cl)cc4[N+](=O)[O-])o3)n2)cc1 [Compound 9, 2-[2-((5-(4-Chloro-2-nitrophenyl)furan-2-yl)methylene)hydrazinyl]-4-(4-nitrophenyl)thiazole]
other
  melting point: 216 to 220 °C
[3]
  MIC: 500 µg/mL (≈ 1060 µM)
[4]
  MIC: 500 µg/mL (≈ 1060 µM)
[5]
  MIC: 500 µg/mL (≈ 1060 µM)
[6]
  MIC: 500 µg/mL (≈ 1060 µM)
[7]
  MIC: 500 µg/mL (≈ 1060 µM)
[8]
  MIC: 1000 µg/mL (≈ 2130 µM)
[1]
  IC50: 103 µg/mL (≈ 218 µM)
[2]
  IC50: 86.3 µg/mL (≈ 184 µM)

## O=[N+]([O-])c1cc(Cl)ccc1-c1ccc(C=NNc2nc(-c3ccc(F)cc3)cs2)o1 [Compound 10, 2-[2-((5-(4-Chloro-2-nitrophenyl)furan-2-yl)methylene)hydrazinyl]-4-(4-fluorophenyl)thiazole]
other
  melting point: 208 to 209 °C
[3]
  MIC: 500 µg/mL (≈ 1130 µM)
[4]
  MIC: 500 µg/mL (≈ 1130 µM)
[5]
  MIC: 250 µg/mL (≈ 565 µM)
[6]
  MIC: 500 µg/mL (≈ 1130 µM)
[7]
  MIC: 1000 µg/mL (≈ 2260 µM)
[8]
  MIC: 1000 µg/mL (≈ 2260 µM)
[1]
  IC50: 122 µg/mL (≈ 275 µM)
[2]
  IC50: 250 µg/mL (≈ 565 µM)

## O=[N+]([O-])c1cc(Cl)ccc1-c1ccc(C=NNc2nc(-c3ccc(Cl)cc3)cs2)o1 [Compound 11, 2-[2-((5-(4-Chloro-2-nitrophenyl)furan-2-yl)methylene)hydrazinyl]-4-(4-chlorophenyl)thiazole]
other
  melting point: 186 to 187 °C
[3]
  MIC: 500 µg/mL (≈ 1090 µM)
[4]
  MIC: 500 µg/mL (≈ 1090 µM)
[5]
  MIC: 500 µg/mL (≈ 1090 µM)
[6]
  MIC: 500 µg/mL (≈ 1090 µM)
[7]
  MIC: 1000 µg/mL (≈ 2180 µM)
[8]
  MIC: 1000 µg/mL (≈ 2180 µM)
[1]
  IC50: 125 µg/mL (≈ 272 µM)
[2]
  IC50: > 500 µg/mL

## OC(Cn1cncn1)(Cn1cncn1)c1ccc(F)cc1F [Fluconazole, reference compound]
[3]
  MIC: 1 µg/mL (≈ 3.27 µM)
[4]
  MIC: 2 µg/mL (≈ 6.53 µM)
[5]
  MIC: 2 µg/mL (≈ 6.53 µM)
[6]
  MIC: 1 µg/mL (≈ 3.27 µM)
[7]
  MIC: 2 µg/mL (≈ 6.53 µM)
[8]
  MIC: 2 µg/mL (≈ 6.53 µM)
